In series [1] the target is equine serum BuChE (eqBuChE) (Equus caballus, UniProt P81908). In words: biochemical. The format is biochemical. The following applies: for IC50: [S] = 112 µM, 0.1 M phosphate buffer pH 8.0, 25 °C, mean ± SD; for Ki: eqBuChE.
A further series concerns Artemia salina. Briefly: Artemia salina lethal toxicity assay. Format: in vivo. The following applies: 24 h. Here is the method:
(§1) Artemia salina was used for in vivo general toxicity assessment of the compounds A1–3 and B1–5.
(§2) The ARTOXKIT M protocol was used. The percentage of dyed nauplii of Artemia salina, grown in the presence of variable concentrations of the inhibitor compounds (A1–3 and B1–5) (0.01 to 100 µM).
(§3) Saline water with 1% DMSO was used as a blank.
(§4) In parallel, a K2Cr2O7 test was performed as quality control.

The nature of series [2]: Artemia salina lethal toxicity assay. The format is in vivo. The settings on record: in vivo. Here is the method:
as §1, §2, §3, §4

The next series is described as follows: FRAP antioxidant assay. The settings on record: for Antioxidant capacity, FRAP method: 6–200 µM; for Trolox Equivalent Antioxidant Capacity (TEAC), FRAP method: at 200 μM, compared to Trolox.
For series [3], the target named is T1, electrophorus electricus AChE (eeAChE) (Electrophorus electricus, UniProt O42275).
T1 construct: purified enzymes of animal origin, namely electrophorus electricus AChE (eeAChE) and equine serum BuChE (eqBuChE); purchased Sigma–Aldrich; host or cells: electric eel (animal origin)
Briefly: biochemical. The settings on record: [S] = 121 µM; 0.1 M phosphate buffer pH 8.0, 25 °C; mean ± SD. Here is the method: In order to evaluate the inhibitory activity against cholinesterase enzymes (AChE and BuChE), well-established in vitro models were used—purified enzymes of animal origin, namely electrophorus electricus AChE (eeAChE) and equine serum BuChE (eqBuChE). Hybrids A1–3 and B1–5 (Figure 3) were evaluated in vitro for cholinesterase inhibition using Ellman’s colorimetric method. […] The values are expressed as the mean ± standard deviation (SD).
The enzymatic activity of electrophorus electricus AChE (eeAChE) and equine serum BuChE (eqBuCHE) was assessed using the Ellman colorimetric assay, with minor modifications. […] Enzyme kinetics were monitored using UV-Vis spectroscopy using 0.875 mM 5,5′-dithiobis(2-nitrobenzoic acid) (DTNB) (Ellman’s reagent) as a chromogenic agent.
For this purpose, GraphPad Prism 8.02 software was used to plot %I vs. [I] (5 different concentrations) via a non-linear regression.

The test system of series [4] is eqBuChE. The settings on record: cited from earlier work.
Series [5] has as its target T2, eqBuChE (Equus caballus, UniProt P81908).
T2 construct: purified enzymes of animal origin, namely electrophorus electricus AChE (eeAChE) and equine serum BuChE (eqBuChE); purchased Sigma–Aldrich; host or cells: equine serum
In words: STD-NMR study with eqBuChE. The following applies: hybrid 2.5 mM, eqBuChE 2.5 μM. Format: binding, equine. Here is the method: STD-NMR is a very useful validation technique for docking studies, which we have used previously with success.
The NMR spectroscopy experiments were performed on a Bruker Avance III 400 MHz spectrometer equipped with a 5 mm broadband (PABBO BB/19F-1H/D Z-GRD) resonance probe head. The STD-NMR experiments were realized according to our established method. Basically, NMR and STD-NMR experiments were carried out with solvent suppression and a 10 ms spinlock filter after the 90◦ pulse to reduce residual signals from the protein. For selective saturation, cascades of Gaussian pulses with a length of 50 ms and 40–60 dB of attenuation were employed, with an interpulse delay of 1 ms. The on-resonance and off-resonance frequencies were set to 0 and 12,000 Hz, respectively. STD-NMR controls were performed using the ligand itself. Blank experiments were performed to guarantee the absence of direct saturation of the ligand proton signals. The relaxation delay was properly adjusted so that the experiment time length was kept constant at 6.5 s. Water suppression at 1880 Hz (4.7 ppm) was conducted. Specifically, the saturation time to obtain the STD buildup curves was recorded at 0.25, 0.5, 1, 2, 3, 4, and 5 s. A 5 μM eqBuChE solution was prepared in a D2O. Five mM stock solutions were prepared for hybrids A1 and B4. […]. The final concentrations of ligand and enzyme were […], respectively.

The subject of the next series is AChE. The following applies: cited from earlier work.
The test system of a further series is BuChE. The following applies: cited from earlier work.

Like-named read-outs stand apart in the source and are kept apart here.

T2 sequence (P81908 whole entry): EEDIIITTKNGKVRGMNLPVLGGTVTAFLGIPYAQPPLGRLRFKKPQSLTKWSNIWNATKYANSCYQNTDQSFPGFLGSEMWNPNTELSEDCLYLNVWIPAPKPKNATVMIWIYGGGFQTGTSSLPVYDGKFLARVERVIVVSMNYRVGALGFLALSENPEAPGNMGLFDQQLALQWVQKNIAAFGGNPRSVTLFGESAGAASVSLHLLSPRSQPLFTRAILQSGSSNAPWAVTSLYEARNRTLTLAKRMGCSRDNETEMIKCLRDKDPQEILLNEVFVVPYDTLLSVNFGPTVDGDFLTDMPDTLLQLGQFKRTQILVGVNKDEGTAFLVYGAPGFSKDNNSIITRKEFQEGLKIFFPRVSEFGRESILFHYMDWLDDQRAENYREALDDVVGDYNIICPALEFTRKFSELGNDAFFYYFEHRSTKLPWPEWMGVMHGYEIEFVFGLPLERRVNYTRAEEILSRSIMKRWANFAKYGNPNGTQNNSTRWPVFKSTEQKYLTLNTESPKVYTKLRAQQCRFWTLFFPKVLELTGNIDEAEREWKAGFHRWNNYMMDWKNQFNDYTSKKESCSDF
Chain of equine serum BuChE (eqBuChE) (P81908 whole entry): as above
T1 sequence (O42275 24-633): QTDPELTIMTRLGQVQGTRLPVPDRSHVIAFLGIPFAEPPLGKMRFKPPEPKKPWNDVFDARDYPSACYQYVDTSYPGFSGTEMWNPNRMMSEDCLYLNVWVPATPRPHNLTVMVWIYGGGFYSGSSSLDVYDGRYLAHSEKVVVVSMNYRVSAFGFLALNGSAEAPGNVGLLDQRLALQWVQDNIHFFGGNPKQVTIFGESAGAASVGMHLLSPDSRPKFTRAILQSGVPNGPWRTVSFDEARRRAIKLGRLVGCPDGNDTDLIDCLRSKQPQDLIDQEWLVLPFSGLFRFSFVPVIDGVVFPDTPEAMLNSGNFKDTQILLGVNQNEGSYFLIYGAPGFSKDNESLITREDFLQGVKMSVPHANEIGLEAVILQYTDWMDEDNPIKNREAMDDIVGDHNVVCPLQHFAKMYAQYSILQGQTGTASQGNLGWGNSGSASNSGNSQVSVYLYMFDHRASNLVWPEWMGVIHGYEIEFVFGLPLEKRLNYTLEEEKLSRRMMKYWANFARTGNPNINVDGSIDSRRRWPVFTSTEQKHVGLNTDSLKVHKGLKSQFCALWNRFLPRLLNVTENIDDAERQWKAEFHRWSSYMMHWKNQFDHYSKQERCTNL

Broadly, the IC50 is the concentration at which inhibition is half-maximal. The LC50 is the concentration lethal to half of the exposed cells or organisms. Take `O=C1NC(Cn2cc(-c3ccccc3)nn2)=C(n2cc(-c3ccccc3)nn2)C(c2ccccc2)N1` (centres unmarked) [Hybrid B1, 4-Phenyl-5-(4-phenyl-1,2,3-triazol-1-yl)-6-((4-phenyl-1,2,3-triazol-1-yl)methyl)-3,4-dihydropyrimidin-2-one]: the results for the IC50 in [1] and in series [3] were 53 ± 4 µM and above 100 µM, respectively. Moreover, in the series with Artemia salina, the “NOEC (No Observed Effect Concentration)” value is 200 µM. Moreover, the median lethal concentration (LC50) at 24 h in [2] was above 200 µM. Besides, the “Antioxidant capacity, FRAP method” value in the series “FRAP antioxidant assay” is on record as “null values”.

Regarding `COc1cc(OC)c2c(=O)c(OCCCCn3cc(CN4C(=O)C(=O)c5ccccc54)nn3)c(-c3ccc(OC)c(OC)c3)oc2c1` [IV], the half-inhibitory concentration (IC50) in the series with eqBuChE [4] was 11.2 µM.

For the compound `CC1=C(n2cc(-c3ccccc3)nn2)C(c2ccccc2)NC(=O)N1` (centres unmarked) [Hybrid A1, 6-Methyl-4-phenyl-5-(4-phenyl-1,2,3-triazol-1-yl)-3,4-dihydropyrimidin-2-one], the half-maximal inhibitory concentration (IC50) in series [1] is 12 ± 2 µM; in series [3] it was above 100 µM. The “NOEC (No Observed Effect Concentration)” value with Artemia salina is 200 µM. Further, the “STD-NMR attenuation, H3” value at eqBuChE [5] (3 s saturation, H9 set to 100%) came to 87%. For the same compound, the “STD-NMR attenuation, H7” value on eqBuChE [5] (3 s saturation, H9 set to 100%) came to 88%.

Regarding `O=C1NC(Cn2cc(-c3ccccc3)nn2)=C(n2cc(-c3ccccc3)nn2)C(c2ccc(OCc3ccccc3)cc2)N1` (centres unmarked) [Hybrid B5, 4-(4-(Benzyloxy)phenyl)-5-(4-phenyl-1,2,3-triazol-1-yl)-6-((4-phenyl-1,2,3-triazol-1-yl)methyl)-3,4-dihydropyrimidin-2-one], the IC50 in [1] is above 100 µM. Moreover, in the series on Artemia salina, the “NOEC (No Observed Effect Concentration)” value was determined as 200 µM. For the same compound, in “FRAP antioxidant assay”, the “Antioxidant capacity, FRAP method” value is “some potential to reduce Fe(III) to Fe(II)” and the “Trolox Equivalent Antioxidant Capacity (TEAC), FRAP method” value was 0.216. The IC50 in series [3] was above 100 µM.

On to `COc1ccc(C2NC(=O)NC(CCc3ccc(O)cc3)=C2C(=O)CCc2ccc(O)cc2)cc1` (centres unmarked) [V], for which the concentration for half-maximal inhibition (IC50) in the series on AChE was 1.34 µM.

`O=C1NC(Cn2cc(C3CC3)nn2)=C(n2cc(-c3ccccc3)nn2)C(c2ccccc2)N1` (centres unmarked) [Hybrid B3, 6-((4-Cyclopropyl-1H-1,2,3-triazol-1-yl)methyl)-4-phenyl-5-(4-phenyl-1,2,3-triazol-1-yl)-3,4-dihydropyrimidin-2-one]: the 50% inhibitory concentration (IC50) in series [1] is 58 ± 3 µM; in series [3] it was above 100 µM. Moreover, the “NOEC (No Observed Effect Concentration)” value in the series on Artemia salina was determined as 200 µM. In addition, in “FRAP antioxidant assay”, the “Antioxidant capacity, FRAP method” value is reported as “some potential to reduce Fe(III) to Fe(II)”. Further, the “Trolox Equivalent Antioxidant Capacity (TEAC), FRAP method” value in the series “FRAP antioxidant assay” came to 0.257.

As to `CC1=C(n2cc(-c3ccccc3)nn2)C(c2ccc(Cl)cc2)NC(=O)N1` (centres unmarked) [Hybrid A2, 4-(4-Chlorophenyl)-6-methyl-5-(4-phenyl-1,2,3-triazol-1-yl)-3,4-dihydropyrimidin-2-one], the half-inhibitory concentration (IC50) in [1] is 24 ± 1 µM; in series [3] it was above 100 µM. For the same compound, the “NOEC (No Observed Effect Concentration)” value with Artemia salina worked out at 200 µM.

In the case of `CC(C)[C@@H]1CC[C@@H](C)C[C@@H]1n1cc(CN2C(=O)C(=O)c3ccccc32)nn1` [III], the 50% inhibitory concentration (IC50) with eqBuChE [4] is 0.46 µM.

On to `O=C1NC(Cn2cc(CN3C(=O)C(=O)c4ccccc43)nn2)=C(n2cc(-c3ccccc3)nn2)C(c2ccccc2)N1` (centres unmarked) [Hybrid B4, 1-((1-((2-Oxo-6-phenyl-5-(4-phenyl-1,2,3-triazol-1-yl)-1,2,3,6-tetrahydropyrimidin-4-yl)methyl)-1,2,3-triazol-4-yl)methyl)indoline-2,3-dione], for which the IC50 in [1] was 1 ± 0.1 µM; in series [3], above 100 µM. Moreover, the Ki is 1.4 µM in series [1] (inhibition constant for binding to the enzyme-substrate complex, read-out: Kib (converted)) and 1.1 µM in series [1] (inhibition constant for binding to the free enzyme, read-out: Kia (converted)). The “Type of inhibition of eqBuChE” value in [1] (methods of Dixon and Cornish-Bowden) is given as “mixed mode of inhibition”. Besides, the “NOEC (No Observed Effect Concentration)” value in the series on Artemia salina came out at 200 µM. For the same compound, in “FRAP antioxidant assay”, the “Antioxidant capacity, FRAP method” value is “null values”. On eqBuChE [5] (4 s saturation, H16 set to 100%), the “STD-NMR attenuation, H11 and H13 of the CH2 groups” value was determined as 33%.

Regarding `CC1=C(n2cc(-c3ccccc3)nn2)C(c2ccc(OCc3ccccc3)cc2)NC(=O)N1` (centres unmarked) [Hybrid A3, 4-(4-(Benzyloxy)phenyl)-6-methyl-5-(4-phenyl-1,2,3-triazol-1-yl)-3,4-dihydropyrimidin-2-one], the IC50 in [1] and in series [3] was above 100 µM in each case. The “NOEC (No Observed Effect Concentration)” value in the series on Artemia salina is 200 µM.

As for `O=c1ccc2ccc(OCCCCCn3cc(CNc4c5c(nc6ccccc46)CCCC5)nn3)cc2o1` [II], the IC50 in the series on BuChE was 0.006 µM; in the series on AChE it was 0.095 µM.

With `CC(=O)c1ccc(OCc2cccc(C(F)(F)F)c2)cc1OCc1cn(CCc2c[nH]c3ccccc23)nn1` [I], the half-maximal inhibitory concentration (IC50) with BuChE was 0.00013 µM.

Take `[K+].[K+].[O]=[Cr](=[O])([O-])[O][Cr](=[O])(=[O])[O-]` [Hybrid K2Cr2O7, K2Cr2O7, reference compound]: in the series on Artemia salina (reference test), the median lethal concentration (LC50) is 23.6 µg/mL, the “LOEC (Lowest Observed Effect Concentration)” value is 18 mg/L and the “NOEC (No Observed Effect Concentration)” value is 10 mg/L.

As to `CCOC(=O)C1=C(C[Se]C(=O)c2ccc(C)cc2)NC(=O)NC1c1ccccc1` (centres unmarked) [VI], the IC50 in the series on AChE was 7.21 µM.

In turn, `O=C1NC(Cn2cc(-c3ccc(Br)cc3)nn2)=C(n2cc(-c3ccccc3)nn2)C(c2ccccc2)N1` (centres unmarked) [Hybrid B2, 6-((4-(4-Bromophenyl)-1,2,3-triazol-1-yl)methyl)-4-phenyl-5-(4-phenyl-1,2,3-triazol-1-yl)-3,4-dihydropyrimidin-2-one] registered an IC50 in series [1] above 100 µM. Also, in the series on Artemia salina, the “LOEC (Lowest Observed Effect Concentration)” value stood at 100 µM and the “NOEC (No Observed Effect Concentration)” value was 1 µM. In [2], this compound returned an LC50 at 24 h above 200 µM. Also, the “Antioxidant capacity, FRAP method” value in “FRAP antioxidant assay” is recorded as “null values”. In series [3], this compound registered an IC50 above 100 µM.

Values taken from article PMC11508620, “Assessing the Potential of 1,2,3-Triazole-Dihydropyrimidinone Hybrids Against Cholinesterases: In Silico, In Vitro, and In Vivo Studies” (International Journal of Molecular Sciences, 2024).
